Test results: US4205163A, “Tylosin derivatives” (Sanraku-Ocean Co., Ltd., priority 1977, dated 1980)
≈ marks a conversion by molar mass, not a printed value. Like-named read-outs stand apart in the source and are kept apart here.

Columns and labels:
[1] = system: Bacillus cereus ATCC 9634; assay: antimicrobial activity, broth dilution method; assay type: cell-based; conditions: Bacillus cereus
Procedure, shortened: (§1)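 Activity was measured by broth dilution against each strain. S. aureus MS-8710 is a clinical isolate resistant to tylosin, penicillin, tetracycline, erythromycin and leucomycin. The S. pyogenes strain is a clinical isolate resistant to tylosin, erythromycin, oleandomycin and leucomycin.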

[2] = system: Staphylococcus aureus SMITH; assay: antimicrobial activity, broth dilution method; assay type: cell-based; conditions: Staphylococcus aureus, read-out: minimum inhibitory concentration (MIC)
Procedure, shortened: (§2)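 Broth dilution MICs were measured against pathogenic bacteria, including clinically isolated drug-resistant strains. Staphylococcus aureus MS-8710 is resistant to tylosin, penicillin, tetracycline, erythromycin and leucomycin, and Streptococcus pyogenes to tylosin, erythromycin, oleandomycin and leucomycin.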

[3] = system: Sarcina lutea ATCC 9341; assay: antimicrobial activity, broth dilution method; assay type: cell-based; conditions: Micrococcus luteus, ATCC9341, Sarcina lutea ATCC 9341, read-out: minimum inhibitory concentration (MIC)
Procedure, shortened: as §1

[4] = system: Staphylococcus aureus MS-9937; assay: antimicrobial activity, broth dilution method; assay type: cell-based
Procedure, shortened: as §1

[5] = system: Staphylococcus aureus FDA-209P; assay: antimicrobial activity, broth dilution method; assay type: cell-based; conditions: Staphylococcus aureus, FDA209P, read-out: minimum inhibitory concentration (MIC)
Procedure, shortened: as §2

[6] = system: Staphylococcus aureus MS-8710; assay: antimicrobial activity, broth dilution method; assay type: cell-based; conditions: Staphylococcus aureus
Procedure, shortened: as §1

[7] = system: Streptococcus pyogenes MH-771; assay: antimicrobial activity, broth dilution method; assay type: cell-based; conditions: Streptococcus pyogenes
Procedure, shortened: as §1

[8] = system: Staphylococcus aureus MS-9931; assay: antimicrobial activity, broth dilution method; assay type: cell-based
Procedure, shortened: as §1

[9] = in vivo; conditions: mouse, po, 100 mg/kg
Method: The new antibiotics according to the present invention were each orally administered to mice at a dose of 100 mg/kg. Each blood level was then measured and compared with those of tylosin and 3-acetyltylosin.

[10] = system: Mycoplasma gallisepticum E-5; assay: antibacterial activity against Mycoplasma; assay type: cell-based; conditions: Mycoplasmoides gallisepticum, E5
From the text: (§3) Furthermore the new antibiotics according to the present invention also show antimicrobial activity on Mycoplasma. In particular, it is noteworthy that they have much higher antimicrobial activity than tylosin on Mycoplasma that is resistant to macrolide antibiotics. Tab.
(§4) *Macrolide resistant strain
(§5) **Medium (Eiken PPLO Medium)

[11] = system: Mycoplasma gallisepticum A-72; assay: antibacterial activity against Mycoplasma; assay type: cell-based; conditions: Mycoplasmoides gallisepticum, A72; strain A-72, macrolide resistant; Eiken PPLO Medium
From the text: as §3, §4, §5

[12] = system: Mycoplasma gallisepticum E-11; assay: antibacterial activity against Mycoplasma; assay type: cell-based; conditions: Mycoplasmoides gallisepticum, E11
From the text: as §3, §4, §5

[13] = system: Mycoplasma gallisepticum KP-13; assay: antibacterial activity against Mycoplasma; assay type: cell-based; conditions: Mycoplasmoides gallisepticum, KP13
From the text: as §3, §5

[14] = ATCC9634, Bacillus cereus ATCC 9634, broth dilution, read-out: minimum inhibitory concentration (MIC)
[15] = Staphylococcus aureus SMITH, broth dilution
[16] = MS9937, Staphylococcus aureus MS-9937, drug-resistant clinical isolate, read-out: minimum inhibitory concentration (MIC)
[17] = Staphylococcus aureus FDA-209P, broth dilution
[18] = MS8710, Staphylococcus aureus MS-8710, drug-resistant clinical isolate, read-out: minimum inhibitory concentration (MIC)
[19] = MH771, Streptococcus pyogenes MH-771, drug-resistant clinical isolate, read-out: minimum inhibitory concentration (MIC)
[20] = MS9931, Staphylococcus aureus MS-9931, drug-resistant clinical isolate, read-out: minimum inhibitory concentration (MIC)
[21] = strain E-11, macrolide resistant, Eiken PPLO Medium, read-out: MIC
[22] = strain KP-13, Eiken PPLO Medium, read-out: MIC
[23] = strain E-5, macrolide resistant, Eiken PPLO Medium, read-out: MIC

Row | Compound | MIC [1, 14] [µg/mL] | MIC [2, 15] [µg/mL] | MIC [3] [µg/mL] | MIC [4, 16] [µg/mL] | MIC [5, 17] [µg/mL] | MIC [6, 18] [µg/mL] | MIC [7, 19] [µg/mL] | MIC [8, 20] [µg/mL] | MIC [10] [µg/mL] | MIC [11] [µg/mL] | MIC [12, 21] [µg/mL] | MIC [13, 22] [µg/mL] | MIC [10, 23] [µg/mL] | also measured
1 | CCC1OC(=O)CC(OC(C)=O)C(C)C(OC2OC(C)C(OC3CC(C)(O)C(O)C(C)O3)C(N(C)C)C2O)C(CC=O)CC(C)C(=O)C=CC(C)=CC1COC1OC(C)C(O)C(OC)C1OC (stereo not shown) [3-acetyltylosin, reference compound] | 0.78 (≈ 0.814 µM) | 0.39 (≈ 0.407 µM) | 0.19 (≈ 0.198 µM) | 100 (≈ 104 µM) | 0.39 (≈ 0.407 µM) | 200 (≈ 209 µM) | 200 (≈ 209 µM) | 200 (≈ 209 µM) |  |  |  |  |  | Cmax [9]: 2000 to 5000 ng/mL
2 | CCC1OC(=O)CC(O)C(C)C(OC2OC(C)C(OC3CC(C)(O)C(OC(=O)CCC4CCCCC4)C(C)O3)C(N(C)C)C2O)C(CC=O)CC(C)C(=O)C=CC(C)=CC1COC1OC(C)C(O)C(OC)C1OC (stereo not drawn) [Compound 29, 4"-β-cyclohexylpropionyl tylosin] | 0.78 (≈ 0.74 µM) | 0.78 (≈ 0.74 µM) | 0.39 (≈ 0.37 µM) | 12.5 (≈ 11.9 µM) | 0.78 (≈ 0.74 µM) | 12.5 (≈ 11.9 µM) | 6.25 (≈ 5.93 µM) | 12.5 (≈ 11.9 µM) | 0.313 (≈ 0.297 µM) | 0.313 (≈ 0.297 µM) | 0.625 (≈ 0.593 µM) | 0.039 (≈ 0.037 µM) |  | 
3 | CCC1OC(=O)CC(O)C(C)C(OC2OC(C)C(OC3CC(C)(O)C(OC(=O)CSc4ccncc4)C(C)O3)C(N(C)C)C2O)C(CC=O)CC(C)C(=O)C=CC(C)=CC1COC1OC(C)C(O)C(OC)C1OC (stereo not shown) [Compound 41, 4"-(4-pyridyl)thioacetyltylosin] | 0.39 (≈ 0.365 µM) | 0.39 (≈ 0.365 µM) | 0.19 (≈ 0.178 µM) | 12.5 (≈ 11.7 µM) | 0.78 (≈ 0.731 µM) | 12.5 (≈ 11.7 µM) | 12.5 (≈ 11.7 µM) | 12.5 (≈ 11.7 µM) |  | 0.157 (≈ 0.147 µM) | 0.313 (≈ 0.293 µM) | 0.039 (≈ 0.0365 µM) | 0.313 (≈ 0.293 µM) | 
4 | CCC1OC(=O)CC(O)C(C)C(OC2OC(C)C(OC3CC(C)(O)C(OC(=O)CSC4CCCCC4)C(C)O3)C(N(C)C)C2O)C(CC=O)CC(C)C(=O)C=CC(C)=CC1COC1OC(C)C(O)C(OC)C1OC (stereo not shown) [Compound 40, 4"-cyclohexylthioacetyltylosin] | 0.78 (≈ 0.727 µM) | 0.78 (≈ 0.727 µM) | 0.39 (≈ 0.364 µM) | 25 (≈ 23.3 µM) | 0.78 (≈ 0.727 µM) | 12.5 (≈ 11.7 µM) | 6.25 (≈ 5.83 µM) | 12.5 (≈ 11.7 µM) | 0.157 (≈ 0.146 µM) | 0.157 (≈ 0.146 µM) |  | 0.078 (≈ 0.0727 µM) |  | MIC [12]: 0.157 µg/mL (≈ 0.146 µM)
5 | CCC1OC(=O)CC(O)C(C)C(OC2OC(C)C(OC3CC(C)(O)C(OC(=O)CCc4ccccc4)C(C)O3)C(N(C)C)C2O)C(CC=O)CC(C)C(=O)C=CC(C)=CC1COC1OC(C)C(O)C(OC)C1OC (stereo not drawn) [Compound 24, 4"-β-phenylpropionyltylosin] | 0.78 (≈ 0.744 µM) | 0.39 (≈ 0.372 µM) | 0.19 (≈ 0.181 µM) | 25 (≈ 23.8 µM) | 0.78 (≈ 0.744 µM) | 12.5 (≈ 11.9 µM) | 25 (≈ 23.8 µM) | 12.5 (≈ 11.9 µM) |  | 0.157 (≈ 0.15 µM) | 0.313 (≈ 0.299 µM) | 0.078 (≈ 0.0744 µM) | 0.313 (≈ 0.299 µM) | concentration at 1 h [9]: 12000 ng/mL; concentration at 3 h [9]: 2000 ng/mL
6 | CCC1OC(=O)CC(OC(C)=O)C(C)C(OC2OC(C)C(OC3CC(C)(O)C(OC(=O)CN(C(C)=O)c4ccccc4)C(C)O3)C(N(C)C)C2O)C(CC=O)CC(C)C(=O)C=CC(C)=CC1COC1OC(C)C(O)C(OC)C1OC (stereo not shown) [Compound 32, 3-acetyl-4"-(N-acetylanilino)acetyltylosin] | 0.78 (≈ 0.688 µM) | 0.78 (≈ 0.688 µM) | 0.39 (≈ 0.344 µM) | 25 (≈ 22.1 µM) | 0.78 (≈ 0.688 µM) | 12.5 (≈ 11 µM) | 12.5 (≈ 11 µM) | 25 (≈ 22.1 µM) |  | 0.157 (≈ 0.139 µM) | 0.313 (≈ 0.276 µM) |  | 0.313 (≈ 0.276 µM) | MIC [13]: 0.157 µg/mL (≈ 0.139 µM)
7 | CC[C@H]1OC(=O)C[C@@H](O)[C@H](C)[C@@H](O[C@@H]2O[C@H](C)[C@@H](O[C@H]3C[C@@](C)(O)[C@@H](O)[C@H](C)O3)[C@H](N(C)C)[C@H]2O)[C@@H](CC=O)C[C@@H](C)C(=O)/C=C/C(C)=C/[C@@H]1CO[C@@H]1O[C@H](C)[C@@H](O)[C@@H](OC)[C@H]1OC [tylosin] |  |  | 0.19 (≈ 0.207 µM) |  |  |  |  |  | 2.5 (≈ 2.73 µM) | 2.5 (≈ 2.73 µM) |  |  |  | MIC [12]: 2.5 µg/mL (≈ 2.73 µM); MIC ([1]; ATCC9634, read-out: minimum inhibitory concentration (MIC)): 0.78 µg/mL (≈ 0.851 µM); MIC [2]: 0.39 µg/mL (≈ 0.426 µM); MIC ([4]; Staphylococcus aureus, MS9937, read-out: minimum inhibitory concentration (MIC)): 100 µg/mL (≈ 109 µM); MIC [5]: 0.39 µg/mL (≈ 0.426 µM); MIC ([6]; MS8710, read-out: minimum inhibitory concentration (MIC)): > 200 µg/mL; MIC ([7]; MH771, read-out: minimum inhibitory concentration (MIC)): > 200 µg/mL; MIC ([8]; Staphylococcus aureus, MS9931, read-out: minimum inhibitory concentration (MIC)): 200 µg/mL (≈ 218 µM); Cmax [9]: ≤ 1000 ng/mL; MIC [13]: 0.019 µg/mL (≈ 0.0207 µM)
8 | CCC1OC(=O)CC(OC(C)=O)C(C)C(OC2OC(C)C(OC3CC(C)(O)C(OC(=O)CSCc4ccccc4)C(C)O3)C(N(C)C)C2O)C(CC=O)CC(C)C(=O)C=CC(C)=CC1COC1OC(C)C(O)C(OC)C1OC (stereo not shown) [Compound 38, 3-acetyl-4"-benzylthioacetyltylosin] | 1.56 (≈ 1.39 µM) | 0.78 (≈ 0.695 µM) | 0.39 (≈ 0.347 µM) | 12.5 (≈ 11.1 µM) | 0.78 (≈ 0.695 µM) | 12.5 (≈ 11.1 µM) | 6.25 (≈ 5.57 µM) | 12.5 (≈ 11.1 µM) |  | 0.078 (≈ 0.0695 µM) | 0.078 (≈ 0.0695 µM) | 0.019 (≈ 0.0169 µM) | 0.078 (≈ 0.0695 µM) | 
9 | CCC1OC(=O)CC(O)C(C)C(OC2OC(C)C(OC3CC(C)(O)C(OC(=O)COc4ccccc4)C(C)O3)C(N(C)C)C2O)C(CC=O)CC(C)C(=O)C=CC(C)=CC1COC1OC(C)C(O)C(OC)C1OC (stereo not shown) [Compound 44, 4"-phenoxyacetyltylosin] | 0.78 (≈ 0.743 µM) | 0.39 (≈ 0.371 µM) | 0.19 (≈ 0.181 µM) | 25 (≈ 23.8 µM) | 0.39 (≈ 0.371 µM) | 25 (≈ 23.8 µM) | 6.25 (≈ 5.95 µM) | 25 (≈ 23.8 µM) |  |  |  |  |  | 
10 | CCC(CC)C(=O)OC1C(C)OC(OC2C(C)OC(OC3C(CC=O)CC(C)C(=O)C=CC(C)=CC(COC4OC(C)C(O)C(OC)C4OC)C(CC)OC(=O)CC(OC(C)=O)C3C)C(O)C2N(C)C)CC1(C)O (stereo not drawn) [Compound 13, 3-acetyl-4"-α-ethyl-n-butyryltylosin] | 0.78 (≈ 0.738 µM) | 0.78 (≈ 0.738 µM) | 0.19 (≈ 0.18 µM) | 25 (≈ 23.7 µM) | 0.39 (≈ 0.369 µM) | 25 (≈ 23.7 µM) | 12.5 (≈ 11.8 µM) | 25 (≈ 23.7 µM) |  |  |  |  |  | 
